Experimental data reported in US20230278972A1, “SUBSTITUTED HALOALKYL SULFONANILIDE HERBICIDES” (FMC Corporation, priority 2020, published 2023).

Tests used:
Assay type in all cases: in vivo
[1] = tested on: ragweed (common ragweed, Ambrosia artemisiifolia); assay: Test A1 preemergence, ragweed
How it was run: (§1)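 Plants grown in pots of loam/sand mix; preemergence = soil-directed spray on seeded pots, postemergence = spray at 1–2 leaves, height 2–10 cm; test chemicals formulated in non-phytotoxic solvent with surfactant.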

[2] = tested on: Oat, Wild (wild oat, Avena fatua); assay: Test A1 postemergence, Oat, Wild; conditions: Postemergence
How it was run: (§2)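 Plants were grown in a loam soil/sand blend, with test chemicals formulated in a non-phytotoxic solvent mixture containing surfactant. Preemergence treatment (corn) was a directed soil spray at planting. Postemergence treatment was applied to plants 2 to 10 cm tall at the one- to two-leaf stage.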

[3] = tested on: Pigweed, Palmer (palmer amaranth, palmer pigweed, Amaranthus palmeri); assay: Test A1 postemergence, Pigweed, Palmer; conditions: Postemergence
How it was run: as §2

[4] = tested on: goosegrass (Eleusine indica); assay: Test A1 postemergence, goosegrass; conditions: Postemergence
How it was run: (§3)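 Herbicidal response was scored on plants treated either preemergence, by directed spray onto soil of a loam–sand blend after sowing, or postemergence on potted plants at the one- to two-leaf stage, 2–10 cm high. Test chemicals were carried in a non-phytotoxic solvent mix with surfactant.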

[5] = tested on: goosegrass (Eleusine indica); assay: Test A1 preemergence, goosegrass
How it was run: as §1

[6] = tested on: ragweed (common ragweed, Ambrosia artemisiifolia); assay: Test A1 postemergence, ragweed; conditions: Postemergence
How it was run: as §2

[7] = tested on: blackgrass (Alopecurus myosuroides); assay: Test A1 preemergence, blackgrass
How it was run: as §1

corn (Zea mays) = assay: Test A1 preemergence, corn
How it was run: as §2

[8] = tested on: wheat (Triticum aestivum); assay: Test A1 preemergence, wheat
How it was run: as §1

[9] = tested on: horseweed (Erigeron canadensis); assay: Test A1 postemergence, horseweed; conditions: Postemergence
How it was run: as §3

[10] = 31 g ai/ha, 0 to 100 scale (0 no effect, 100 complete control)
[11] = 125 g ai/ha, 0 to 100 scale, 0 no effect, 100 complete control
[12] = 31 g ai/ha, 0 to 100 scale (0 no effect, 100 complete control), 10 days

SMILES	Plant response rating, Ragweed [1, 10]	Plant response rating, Ragweed [1, 11]	Plant response rating, Oat, Wild [2, 12]	Plant response rating, Oat, Wild ([2]; 125 g ai/ha, 0 to 100 scale)	Plant response rating, Pigweed, Palmer [3, 12]	Plant response rating, Pigweed, Palmer ([3]; 125 g ai/ha, 0 to 100 scale)	Plant response rating, Goosegrass [4, 12]	Plant response rating, Goosegrass ([4]; 125 g ai/ha, 0 to 100 scale)	Plant response rating, Goosegrass [5, 10]	Plant response rating, Goosegrass [5, 11]	Plant response rating, Ragweed [6, 12]	Plant response rating, Ragweed ([6]; 125 g ai/ha, 0 to 100 scale)	Plant response rating, Blackgrass [7, 10]	Plant response rating, Blackgrass [7, 11]	Plant response rating, Corn (corn (Zea mays); [10])	Plant response rating, Corn (corn (Zea mays); [11])	Plant response rating, Wheat [8, 10]	Plant response rating, Wheat [8, 11]	Plant response rating, Horseweed [9, 12]	Plant response rating, Horseweed ([9]; 125 g ai/ha, 0 to 100 scale)
Cc1c(C(=O)N2CCOCC2)cc(NS(=O)(=O)C(F)(F)F)c(Cl)c1F [Compound 321]	50	90	0	10	50	70	0	80	70	100	90	90	0	70	0	30	0	80	70	80
CCCCOC1CC(c2cc(NS(=O)(=O)C(F)(F)F)c(C)cc2C)=NO1 (centres unmarked) [Compound 323]	0	30	0	0	20	60	0	50	50	90	0	50	0	30	0	10	0	50	0	50
CCOC(=O)N(c1cc(C(=O)N2CCOCC2)c(C)c(C)c1C)S(=O)(=O)C(F)(F)F [Compound 325]	50	90	0	10	30	90	0	90	100	100	0	70	0	40	0	40	20	60	90	90
Cc1c(C(=O)N2CCCCC2)cc(N(COC(=O)C(C)(C)C)S(=O)(=O)C(F)(F)F)c(C)c1C [Compound 329, [[(Trifluoromethyl)sulfonyl][2,3,4-trimethyl-5-(1-piperidinylcarbonyl)phenyl]amino]methyl 2,2-dimethylpropanoate]	60	70	0	0	10	10	0	30	20	100	40	70	0	0	0	0	0	0	20	90
